Where “and” joins values, the source holds several entries; their conditions need not be identical. Equal values may be shown once.
Tests used:
[1] = target: T1, SphK1 (Homo sapiens, UniProt Q9NYA1); test: S1P formation by SphK1 (UPLC, Supplementary Fig 1e); assay type: biochemical; details: acetyl-CoA 0-50 mM
T1 construct: purchased Cayman 10348
Experimental: We confirmed S1P formation through SphK1 enzymatic activity measurements as previously described[11] using a UPLC (Ultra performance liquid chromatography) system (Waters). […] After pre-incubation, 1 mM ATP (Amresco, 0220) was added the mixture, and it was incubated at 37 °C for 1 h. The […] reactions were stopped by adding 53 μl of ethanol, and centrifuged at 15,493×g for 5 min. Thirty microliter of the supernatant was then transferred to a sampling glass vial and 5 μl was applied onto a UPLC system for analysis. S1P formation was followed as phosphorylation of (7-nitro-2-1,3-benzoxadiazol-4-yl)-d-erythro (NBD)-sphingosine (Avanti Polar Lipids) to NBD-S1P. Quantification was achieved by comparison with NBD-S1P (Avanti Polar Lipids) standards.

[2] = test system: APP/PS1 mice; test: flow cytometry of brain microglia polarity (CD86/CD206, Fig 4e); assay type: in vivo, mouse; details: APP/PS1 + N-AS, individual values
Experimental: Transgenic mouse lines over-expressing the hAPP695swe (APP) and presenilin-1M146V (PS1) mutations were originated from GlaxoSmithKline (Harlow, UK)[32] and maintained as described previously. We purchased 5×FAD mice from Jackson Labs (Stock number. 34840-JAX). Because APP/PS1 and 5xFAD mice show sex differences in disease progression, we used only male mice. To examine possible therapeutic effect of N-AS and aspirin in APP/PS1 mice, the N-AS (30 mg kg^−1, Sigma-Aldrich, 01912) was injected daily s.c. for 8 weeks to 7-months-old APP/PS1 mice until the age of 9 months, and aspirin (2 mg kg^−1, Sigma-Aldrich, A5376)[33] was administrated orally to 7-months-old APP/PS1 mice for 8 weeks. Also, to confirm possible therapeutic efficacy of N-AS in 5×FAD, the N-AS (30 mg kg^−1, Sigma-Aldrich, 01912) was injected daily s.c. for 4 weeks to 3-months-old 5×FAD mice until the age of 4 months. Block randomization method was used to allocate the animals to experimental groups. To eliminate the bias, we were blinded in experimental progress such as data collection and data analysis. Mice were housed at temperature of 22 °C and a 12 h day/12 h night cycle with free access to tap water and food pellets. All protocols were approved by the Kyungpook National University Institutional Animal Care and Use Committee.
Brain microglia polarity and immune cells in brain and blood were analyzed by flow cytometry. Cells from WT, APP/PS1, and APP/PS1 treated with N-AS mice brain were prepared as previously described with minor modifications. Brains of WT, APP/PS1, and APP/PS1 treated with N-AS mice were dissected and immediately transferred in ice-cold HBSS (Gibco). After gentle mincing, the brain was digested in a HBSS solution containing collagenase P (0.2 mg ml^−1, Roche), dispase II (0.8 mg ml^−1, Roche), DNase I (0.01 mg ml^−1, Roche), and collagenase A (0.3 mg ml^−1, Roche) at 37 °C for 1 h under gentle rocking. […] Red blood cells were lysed once at 4 °C for 10 min in 0.15 M NH4Cl ([…] Technologies), washed once with PBS (Gibco), and counted using cell counter (Logos biosystems). […]

[3] = test system: APP/PS1 mice; test: Caspase-3+ cells, apoptosis (Supplementary Fig 7o); assay type: in vivo, mouse
Experimental: Thioflavin S (Sigma-Aldrich) staining was carried out according to previously described procedures. We used 6E10 (mouse, 1:100, Signet, SIG39300), anti-20G10 (mouse, 1:1000, provided by D. R. Howlett, GlaxoSmithKline, Harlow, Essex, UK) for Aβ42, anti-G30 (rabbit, 1:1000, provided by D. R. Howlett) for Aβ40, SMA (mouse, 1:400, Sigma-Aldrich, A2547), AT8 (mouse, 1:500, Thermo Fisher Scientific, MN1020), Caspase-3 (mouse, 1:200, Novus Biologicals, NB100-56708), ac-S565 (rabbit, 1:100), COX2 (mouse, 1:250, Thermo Fisher Scientific, 35-8200), Iba1 (rabbit, 1:500, Wako, 019-19941 and goat, Abcam, ab5076), NeuN (mouse, 1:500, Millipore, MAB177), GFAP (rabbit, 1:500, Dako, N1506 and chicken, 1:500, Abcam, ab4674), and Lamp1 (mouse, 1:200, Abcam, ab24170). The sections were analyzed with a laser-scanning confocal microscope (FV3000; Olympus) or with a BX51 microscope (Olympus). MetaMorph software (Molecular Devices) was used to quantification. Three-dimensional reconstruction of microglia was recorded and analyzed using IMARIS software (Bitplane)[11]. For the analysis of age-dependent microglial COX2^+ CX3CR1^+ cells in WT and APP/PS1 mice, COX2 (rabbit, 1:100, Abcam, ab15191) and CX3CR1 (mouse, 1:100, BioLegend, 149008) antibody were used and the images were acquired on Alexa 488 and APC Channel with performed using Operetta CLS and Analysis Software 4.5 (Perkin-Elmer). […]

T1 sequence (Q9NYA1 whole entry): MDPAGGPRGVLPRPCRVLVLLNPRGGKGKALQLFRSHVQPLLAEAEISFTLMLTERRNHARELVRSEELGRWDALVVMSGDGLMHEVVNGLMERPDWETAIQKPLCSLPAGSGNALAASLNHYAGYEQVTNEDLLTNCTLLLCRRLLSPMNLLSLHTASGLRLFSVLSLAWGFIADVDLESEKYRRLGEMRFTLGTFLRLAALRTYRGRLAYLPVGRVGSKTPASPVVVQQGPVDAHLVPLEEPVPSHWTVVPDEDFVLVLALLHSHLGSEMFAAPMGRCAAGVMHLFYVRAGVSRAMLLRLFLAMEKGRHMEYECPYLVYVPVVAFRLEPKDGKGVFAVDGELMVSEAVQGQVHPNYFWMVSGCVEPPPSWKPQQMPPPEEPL

| Structure (SMILES) | S1P formation by SphK1, in words [1] | calculated percentage of CD86+ CD206+ cells [2] | calculated percentage of CD86+ CD206- (pro-inflammatory microglia) cells [2] | calculated percentage of CD86- CD206+ (anti-inflammatory microglia) cells [2] | Caspase-3+ cells ([3]; APP/PS1 + N-AS, sFig 7o) | apoptosis (Caspase-3+ cells) ([3]; N-AS vs vehicle APP/PS1) |
| --- | --- | --- | --- | --- | --- | --- |
| CC(=O)SCCNC(=O)CCNC(=O)[C@H](O)C(C)(C)COP(=O)(O)OP(=O)(O)OC[C@H]1O[C@@H](n2cnc3c(N)ncnc32)[C@H](O)[C@@H]1OP(=O)(O)O [Acetyl-CoA, acetyl-CoA] | inhibited S1P formation in a concentration dependent fashion |  |  |  |  |  |
| CCCCCCCCCCCCC/C=C/[C@@H](O)[C@H](CO)NC(C)=O [N-AS, N-((2S,3R,E)-1,3-Dihydroxyoctadec-4-en-2-yl)acetamide] |  | 1.29 and 0.77 and 0.87 and 1.7 and 1.28 and 1.46 | 0.012 and 0.071 and 0.011 and 0.023 and 0.034 and 0.025 | 3.06 and 1.43 and 2.01 and 2.77 and 2.35 and 2.46 | 0.7653 and 0.8763 and 0.6283 and 0.6646 and 0.8616 and 0.8325 | apoptosis was not changed |

Source: PMC7217877, “N-AS-triggered SPMs are direct regulators of microglia in a model of Alzheimer’s disease” (Nature Communications, 2020)
